Measurements: US8436011B2, “Pyridinopyridinone derivatives, preparation thereof and therapeutic use thereof” (Sanofi, priority 2008, dated 2013)
Counter-ions that a name gives are not always drawn.

tested on: not given; experiment: not given; details: not given

With CCn1c(N)c(C(=O)NC)c(=O)c2ccc(-c3cccc(CC(=O)Nc4ccccn4)c3)nc21 (as salt: HCl) [compound 63, 2-amino-1-ethyl-N-methyl-4-oxo-7-{3-[2-oxo-2-(pyrid-2-ylamino)ethyl]-phenyl}-1,4-dihydro-1,8-naphthyridine-3-carboxamide] as the compound, how does the melting point read?
Its melting point is 176 °C.

Which melting point does the source give for CCn1c(N)c(C(=O)NC)c(=O)c2ccc(-c3ccc(CCNc4ccccn4)cc3)nc21 (as salt: HCl) [compound 64, 2-amino-1-ethyl-N-methyl-4-oxo-7-{4-[2-(pyrid-2-ylamino)ethyl]phenyl}-1,4-dihydro-1,8-naphthyridine-3-carboxamide] here?
Its melting point is 242 °C.

With CCn1c(N)c(C(=O)NC)c(=O)c2ccc(-c3ccc(CC(=O)NC[C@H]4CCCN4CCF)cc3)nc21 (as salt: hydrochloride) [compound 27, 2-amino-1-ethyl-7-{4-[2-({[(2R)-1-(2-fluoroethyl)pyrrolidin-2-yl]methyl}-amino)-2-oxoethyl]phenyl}-N-methyl-4-oxo-1,4-dihydro-1,8-naphthyridine-3-carboxamide] as the compound, how does the melting point read?
Its melting point is 180 °C.

For CCn1c(N)c(C(=O)NC)c(=O)c2ccc(-c3ccc(CC(=O)NCCOC)cc3)nc21 [compound 9, 2-amino-1-ethyl-7-(4-{2-[(2-methoxyethyl)amino]-2-oxoethyl}phenyl)-N-methyl-4-oxo-1,4-dihydro-1,8-naphthyridine-3-carboxamide], which melting point is on record?
Its melting point is 262 °C.

With CCn1c(N)c(C(=O)NC)c(=O)c2ccc(-c3ccc(CC(=O)NC4CC4)cc3)nc21 [compound 10, 2-amino-7-{4-[2-(cyclopropylamino)-2-oxoethyl]phenyl}-1-ethyl-N-methyl-4-oxo-1,4-dihydro-1,8-naphthyridine-3-carboxamide] as the compound, how does the melting point read?
The melting point was over 260 °C.

Which melting point does the source give for CCn1c(N)c(C(=O)NC)c(=O)c2ccc(-c3ccc(CC(=O)NC(C)C)cc3)nc21 [compound 11, 2-amino-1-ethyl-N-methyl-7-(4-{2-[(1-methylethyl)amino]-2-oxoethyl}-phenyl)-4-oxo-1,4-dihydro-1,8-naphthyridine-3-carboxamide] here?
The melting point was 315 °C.

For CCn1c(N)c(C(=O)NC)c(=O)c2ccc(-c3ccc(CC(=O)Nc4cnccn4)cc3)nc21 [compound 13, 2-amino-1-ethyl-N-methyl-4-oxo-7-{4-[2-oxo-2-(pyrazin-2-ylamino)ethyl]-phenyl}-1,4-dihydro-1,8-naphthyridine-3-carboxamide], which melting point is on record?
Its melting point is 290 °C.

With CCN1CCC[C@H]1CNC(=O)Cc1ccc(-c2ccc3c(=O)c(C(=O)NC)c(N)n(CC)c3n2)cc1 [compound 15, 2-amino-1-ethyl-7-{4-[2-({[(2S)-1-ethylpyrrolidin-2-yl]methyl}amino)-2-oxoethyl]phenyl}-N-methyl-4-oxo-1,4-dihydro-1,8-naphthyridine-3-carboxamide] as the compound, how does the melting point read?
The melting point was 262 °C.

For CCn1c(N)c(C(=O)NC)c(=O)c2ccc(-c3ccc(CC(=O)Nc4ccccn4)nc3)nc21 [compound 21, 2-amino-1-ethyl-N-methyl-4-oxo-7-{6-[2-oxo-2-(pyrid-2-ylamino)-ethyl]pyrid-3-yl}-1,4-dihydro-1,8-naphthyridine-3-carboxamide], which melting point is on record?
Its melting point is 266 °C.

For CCn1c(N)c(C(=O)NC)c(=O)c2ccc(-c3ccc(CC(=O)NC[C@H]4CCCN4S(C)(=O)=O)cc3)nc21 [compound 28, 2-amino-1-ethyl-N-methyl-7-{4-[2-({[(2R)-1-(methylsulfonyl)pyrrolidin-2-yl]methyl}amino)-2-oxoethyl]phenyl}-4-oxo-1,4-dihydro-1,8-naphthyridine-3-carboxamide], which melting point is on record?
Its melting point is over 260 °C.

Which melting point does the source give for CCn1c(N)c(C(=O)NC)c(=O)c2ccc(-c3ccc(CC(=O)NC[C@H]4CCCN4CC(F)(F)F)cc3)nc21 [compound 30, 2-amino-1-ethyl-N-methyl-4-oxo-7-{4-[2-oxo-2-({[(2R)-1-(2,2,2-trifluoroethyl)pyrrolidin-2-yl]methyl}amino)ethyl]phenyl}-1,4-dihydro-1,8-naphthyridine-3-carboxamide] here?
Its melting point is over 260 °C.

Which melting point does the source give for CCn1c(N)c(C(=O)NC)c(=O)c2ccc(-c3ccc(CC(=O)NCCc4cccn4C)cc3)nc21 [compound 42, 2-amino-1-ethyl-N-methyl-7-[4-(2-{[2-(1-methyl-1H-pyrrol-2-yl)-ethyl]amino}-2-oxoethyl)phenyl]-4-oxo-1,4-dihydro-1,8-naphthyridine-3-carboxamide] here?
Its melting point is 252 °C.

Which melting point does the source give for CCN1CCCC1CNC(=O)CCc1ccc(-c2ccc3c(=O)c(C(=O)NC)c(N)n(CC)c3n2)cc1 (centres unmarked) [compound 46, 2-amino-1-ethyl-7-[4-(3-{[(1-ethylpyrrolidin-2-yl)methyl]amino}-3-oxopropyl)phenyl]-N-methyl-4-oxo-1,4-dihydro-1,8-naphthyridine-3-carboxamide] here?
The melting point was 218 °C.

For CCN1CCCC1CNC(=O)Cc1ccc(-c2ccc3c(=O)c(C(=O)NC)c(N)n(CC(F)(F)F)c3n2)cc1 (centres unmarked) [compound 49, 2-amino-7-[4-(2-{[(1-ethylpyrrolidin-2-yl)methyl]amino}-2-oxoethyl)-phenyl]-N-methyl-4-oxo-1-(2,2,2-trifluoroethyl)-1,4-dihydro-1,8-naphthyridine-3-carboxamide], which melting point is on record?
The melting point was 300 °C.

Which melting point does the source give for CCN1CCC[C@@H]1CNC(=O)Cc1ccc(-c2ccc3c(=O)c(C(=O)NC)c(N)n(CC(C)C)c3n2)cc1 [compound 53, 2-amino-7-{4-[2-({[(2R)-1-ethylpyrrolidin-2-yl]methyl}amino)-2-oxoethyl]-phenyl}-N-methyl-1-(2-methylpropyl)-4-oxo-1,4-dihydro-1,8-naphthyridine-3-carboxamide] here?
Its melting point is 233 °C.

Which melting point does the source give for CCN1CCC[C@@H]1CNC(=O)Cc1nc(-c2ccc3c(=O)c(C(=O)NC)c(N)n(CC)c3n2)cs1 [compound 55, 2-amino-1-ethyl-7-{2-[2-({[(2R)-1-ethylpyrrolidin-2-yl]methyl}amino)-2-oxoethyl]-1,3-thiazol-4-yl}-N-methyl-4-oxo-1,4-dihydro-1,8-naphthyridine-3-carboxamide] here?
The melting point was 214 °C.

With CCN1CCC[C@@H]1CNC(=O)Cc1ccc(-c2ccc3c(=O)c(C(=O)NC)c(N)n(CC)c3n2)c(F)c1 [compound 56, 2-amino-1-ethyl-7-{4-[2-({[(2R)-1-ethylpyrrolidin-2-yl]methyl}amino)-2-oxoethyl]-2-fluorophenyl}-N-methyl-4-oxo-1,4-dihydro-1,8-naphthyridine-3-carboxamide] as the compound, how does the melting point read?
The melting point was 253 °C.

With CCN1CCCC1CNC(=O)Cc1ccc(-c2ccc3c(=O)c(C(=O)NC)c(N)n(CC)c3n2)cc1F (centres unmarked) [compound 58, 2-amino-7-[3-fluoro-4-(2-{[(1-ethylpyrrolidin-2-yl)methyl]amino}-2-oxoethyl)phenyl]-1-ethyl-N-methyl-4-oxo-1,4-dihydro-1,8-naphthyridine-3-carboxamide] as the compound, how does the melting point read?
The melting point was 275 °C.

Which melting point does the source give for CCN1CCCC1CNC(=O)Cc1ccc(-c2ccc3c(=O)c(C(=O)NC)c(N)n(CC)c3n2)cc1C (centres unmarked) [compound 59, 2-amino-7-[3-methyl-4-(2-{[(1-ethylpyrrolidin-2-yl)methyl]amino}-2-oxoethyl)phenyl]-1-ethyl-N-methyl-4-oxo-1,4-dihydro-1,8-naphthyridine-3-carboxamide] here?
Its melting point is 277 °C.

With CCN1CCCC1CNC(=O)Cc1ccc(-c2ccc3c(=O)c(C(=O)NC)c(N)n(CC)c3n2)c(C)c1 (centres unmarked) [compound 61, 2-amino-1-ethyl-7-[4-(2-{[(1-ethylpyrrolidin-2-yl)methyl]amino}-2-oxoethyl)-2-methylphenyl]-N-methyl-4-oxo-1,4-dihydro-1,8-naphthyridine-3-carboxamide] as the compound, how does the melting point read?
Its melting point is 178 °C.

target: T1, fusion protein Tel/PDGF-R (PDGF-Rβ kinase domain) in HEK cells (Homo sapiens, UniProt P09619); experiment: Ex vivo activity: plasma of orally treated mice tested on PDGF-R autophosphorylation in HEK Tel/PDGF-R cells (ELISA); design: species or system female Balb/c mice; details: HEK293, mouse, po, 30 mg/kg po, plasma collected at 15 min; read-out: % inhibition of autophosphorylation of PDGFR tyrosine kinase in HEK cells
T1 construct: the transmembrane and intracellular part of the PDGF-Rβ receptor; N-terminal part of the Tel transcription factor (ETV6); expressed in transfected cells; host or cells: HEK cells (transient transfection); the other entry of the earlier key: ETV6 (P41212, Transcription factor ETV6)
T1 sequence (P09619 with tags, fused parts or gaps): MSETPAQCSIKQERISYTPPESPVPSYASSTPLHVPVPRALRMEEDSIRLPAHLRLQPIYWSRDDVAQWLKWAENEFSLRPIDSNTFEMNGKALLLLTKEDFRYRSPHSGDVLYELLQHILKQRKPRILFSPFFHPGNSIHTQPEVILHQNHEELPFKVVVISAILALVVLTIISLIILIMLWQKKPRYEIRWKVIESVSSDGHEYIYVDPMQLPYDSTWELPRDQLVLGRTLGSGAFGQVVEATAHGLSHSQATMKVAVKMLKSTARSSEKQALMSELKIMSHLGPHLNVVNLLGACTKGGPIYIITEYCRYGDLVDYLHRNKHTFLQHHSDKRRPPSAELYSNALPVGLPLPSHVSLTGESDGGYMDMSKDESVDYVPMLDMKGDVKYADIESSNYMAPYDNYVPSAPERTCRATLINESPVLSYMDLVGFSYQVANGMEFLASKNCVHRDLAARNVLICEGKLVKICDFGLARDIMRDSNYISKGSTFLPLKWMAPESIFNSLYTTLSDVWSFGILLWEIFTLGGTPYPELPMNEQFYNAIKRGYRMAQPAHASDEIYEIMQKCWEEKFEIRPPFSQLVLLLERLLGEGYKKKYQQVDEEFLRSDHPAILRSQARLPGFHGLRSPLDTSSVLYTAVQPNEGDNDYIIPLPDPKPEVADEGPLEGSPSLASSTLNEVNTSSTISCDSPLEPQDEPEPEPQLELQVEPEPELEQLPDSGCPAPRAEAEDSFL
Experimental: Ex vivo activity of the compounds of the invention was measured. These compounds are thus administered orally to female Balb/c mice at a dose of 10, 30 or 100 mg/kg in suspension or in solution in a vehicle such as methylcellulose/Tween and the inhibition of the tyrosine kinase activity is measured in vitro in a cell test, using plasma collected at 15 minutes, 1 hour and 4 hours.
1) Protocol for Administration of the Products to the Mice
The products are prepared in a mortar with 0.5% Tween 80 and 0.6% methylcellulose qs final volume. Depending on the case, preparations of different vehicles may be used: water, mixture of labrasol solutol 5% glucose-water. The suspended or dissolved products are administered by gavage (10 ml/kg) to female Balb/c mice 8 to 15 weeks old.
The animals are then collected at the time given by the protocol (15 min, 1 hour, 4 hours, 16 hours).
The animals are anaesthetized by intraperitoneal injection (10 ml/kg) of a ketamine (0.1 g/kg)-xylazine (20 mg/kg) mixture. […] The blood sample is collected from the vein or the artery using a dry syringe and needle. The blood is immediately transferred into heparin lithium tubes (BD microtainer). Centrifugation for 3 minutes at 12 000 rpm allows recovery of the plasma, on which the biochemical test may be performed after storage by freezing at −20° C.
2) Preparation of the HEK Tel/PDGF-R Cells and Measurement of the Phosphorylation of PDGF-R
In order to detect the ex vivo activity of the products using the mouse plasmas, the HEK cells are transiently transfected beforehand with an expression vector coding for the fusion protein Tel/PDGF-R (fusion protein described previously). After 24 hours of transfection, the cells are deprived of serum overnight and then incubated for 30 minutes with the animal plasmas treated with the products of the invention. The cells are then lysed in RIPA buffer, and detection of the phosphorylation of PDGF-Rβ is then performed via the ELISA technique, using a commercial kit (R&D Systems, DYC1767). The results are expressed as a percentage of inhibition of the autophosphorylation.
In this test of measurement of the ex vivo activity, the effect of the compounds of the invention is quantified by the percentage of inhibition of phosphorylation of the kinase domain of the PDGF-Rβ receptor in HEK cells, induced by the inhibitory activity of the product present in the plasma of the treated animals, as described in the following table: […]

With CCn1c(N)c(C(=O)NC)c(=O)c2ccc(-c3ccc(CC(=O)NCCN4CCOCC4)cc3)nc21 [compound 18, 2-amino-1-ethyl-N-methyl-7-(4-{2-[(2-morpholin-4-ylethyl)amino]-2-oxoethyl}phenyl)-4-oxo-1,4-dihydro-1,8-naphthyridine-3-carboxamide] as the compound, how does the inhibition at 30 mg/kg read?
The inhibition at 30 mg/kg was 55%.

same assay, conditions: HEK293, mouse, po, 30 mg/kg po, plasma collected at 1 h; read-out: % inhibition of autophosphorylation of PDGFR tyrosine kinase in HEK cells

With CCn1c(N)c(C(=O)NC)c(=O)c2ccc(-c3ccc(CC(=O)NCCN4CCOCC4)cc3)nc21 [compound 18, 2-amino-1-ethyl-N-methyl-7-(4-{2-[(2-morpholin-4-ylethyl)amino]-2-oxoethyl}phenyl)-4-oxo-1,4-dihydro-1,8-naphthyridine-3-carboxamide] as the compound, how does the inhibition at 30 mg/kg read?
The inhibition at 30 mg/kg was 62%.

same assay, conditions: HEK293, mouse, po, 30 mg/kg po, plasma collected at 4 h; read-out: % inhibition of autophosphorylation of PDGFR tyrosine kinase in HEK cells

Which inhibition at 30 mg/kg does the source give for CCn1c(N)c(C(=O)NC)c(=O)c2ccc(-c3ccc(CC(=O)NCCN4CCOCC4)cc3)nc21 [compound 18, 2-amino-1-ethyl-N-methyl-7-(4-{2-[(2-morpholin-4-ylethyl)amino]-2-oxoethyl}phenyl)-4-oxo-1,4-dihydro-1,8-naphthyridine-3-carboxamide] here?
The inhibition at 30 mg/kg was 17%.
